Results on 24 molecules are retold here after patent publication EP0049060A1, “Imidazoles” (BEECHAM GROUP PLC, priority 1980, dated 1982).

The test system of data set [1] is mice. Kind of data set: Potentiation of the Effects of 5-Hydroxytryptophan (anti-convulsant activity of 5 HTP, electroshock threshold). The class given is in vivo. To be noted: for ED100: Mus musculus, po, dose increasing the elevation of electroshock threshold due to 5HTP by 100%. The method, then: (§1) The ability of the compounds of this invention to potentiate catecholaminesand 5-hydroxytryptamine was examined using the test methods (1) and (2) below, respectively. These tests are indicative of anti-depressant activity.
(2) Potentiation of the Effects of 5-Hydroxytryptophan
5 HTP Potentiation was measured in mice using the potentiation of the anti-convulsant activity of 5 HTP originally-described by Buus Lassen J., (1975), Psychopharmacol, 42, 21-6. Mice (10/group) were pretreated with the compounds under investigation and 30' later received a sub-threshold level dose of L-5 HTP (100 mg/kg ip). 30 minutes later they were subjected to electroshock and the shock level (in V) required to cause tonic extensor spasm in 50% of the mice determined for all groups.
The dose of compounds required to increase the elevation of electroshock threshold due to 5HTP by 100% is determined graphically.

Data set [2] deals with T1, A-form of monoamine oxidase (Homo sapiens, UniProt P21397).
T1 sequence (P21397 1-527): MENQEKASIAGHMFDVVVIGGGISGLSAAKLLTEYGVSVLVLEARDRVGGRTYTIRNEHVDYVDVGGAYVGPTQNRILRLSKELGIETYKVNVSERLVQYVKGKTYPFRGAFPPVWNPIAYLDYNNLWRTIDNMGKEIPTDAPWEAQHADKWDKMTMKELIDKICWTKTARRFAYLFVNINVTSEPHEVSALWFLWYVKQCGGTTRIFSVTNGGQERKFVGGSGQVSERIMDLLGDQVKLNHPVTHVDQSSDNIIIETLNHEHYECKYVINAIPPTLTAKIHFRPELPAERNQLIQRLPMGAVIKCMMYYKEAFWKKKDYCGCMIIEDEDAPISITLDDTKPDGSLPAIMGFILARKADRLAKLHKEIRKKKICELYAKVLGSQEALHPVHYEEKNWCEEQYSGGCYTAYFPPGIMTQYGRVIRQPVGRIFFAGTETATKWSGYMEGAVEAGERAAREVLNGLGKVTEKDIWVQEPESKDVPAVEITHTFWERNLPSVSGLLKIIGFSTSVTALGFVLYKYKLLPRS
Kind of data set: Monoamine oxidase A inhibition (other initial tests). It counts as biochemical.

The test system of data set [3] is mice. Kind of data set: Acute toxicity (LD50) in mice. To be noted: initial tests.
Data set [4] can be described thus: Acute toxicity (LD50) in mice. The conditions noted are these: mouse, in vivo, po.
The test system of data set [5] is mice. Kind of data set: Prevention of Reserpine-induced Hypothermia. The class given is in vivo. To be noted: Mus musculus, p.o., oral doses 24, 18 and 2 hours before 1 mg/kg i.v. reserpine, active = significant at p<0.05, read-out: Res Prev (lowest active dose).
From the text: as §1
(1) Prevention of Reserpine-induced Hypothermia
The method of Spencer in "Anti-Depressant Drugs: Proceedings of the 1st International Symposium", p 184-204. Ed. Garattini, S and Dukes MNG, Excerpta Med Foundation, Amsterdam, 1967, was used. Groups of 5 mice were given oral doses of the test compound 24 hours, 18 hours and 2 hours before an intravenous injection of 1 mg/kg reserpine base. The oral temperatures of the mice were taken immediately before the administration of the reserpine and 6 hours afterwards. Mean temperatures of groups given test compounds are compared with the mean temperatures of the reserpinised controls using the Students t test. Compounds causing significant difference at the level p<0.05 are considered active at that dose.

Setting [6] is: read-out: 5-HTP Potentiation, ED100.

Structures can show the parent of a compound that is named as a salt. Where two headings read alike, the source gives them in different places.

For `Cc1nccn1CCOc1cc(Cl)ccc1Cl` [Example 13, l-(2',5'-Dichlorophenoxyethyl)-2-methylimidazole maleate], in data set [1] (setting [6]), the ED100 amounted to 19 mg/kg.
In general, LD50 refers to the dose at which mortality reaches 50%. Low readings indicate a more toxic substance, high ones a less toxic substance. For the molecule `Cc1nccn1CCOc1ccc(Cl)cc1Cl` [formula (II)"], the “inhibitor of the A-form of monoamine oxidase” value in data set [2] is “selective and reversible inhibitor”. Moreover, the level of toxicity entry in data set [3] is “low level of toxicity”. The molecule also came in with an LD50 in data set [4] of over 900 mg/kg.
In the case of `Cc1nccn1CCOc1ccccc1` [Example 20, 1-(2'-Phenoxyethyl)-2-methylimidazole], the ED100 in data set [1] (setting [6]) was 10 mg/kg.
For the molecule “1-(2',4'-Dichlorophenoxyethyl)-4(5)-methylimidazole maleate [Example 22]”, in data set [1] (at 30 mg/kg p.o.), the “5-HTP Potentiation, % Change of control at x mg/kg, p.o.” value (“5-HTP Potentiation, % Change … p.o.” below) came out at 138% at 30.
Turning to `CCc1nccn1CCOc1ccc(Cl)cc1Cl` [Example 23, 1-(2',4'-Dichlorophenoxyethyl)-2-ethylimidazole maleate], the ED100 in data set [1] (setting [6]) was 53 mg/kg.
Still for that read-out and setting: to `Cc1nccn1CCOc1cccc(Cl)c1Cl` [Example 12, 1-(2',3'-Dichlorophenoxyethyl)-2-methylimidazole maleate] belongs 28 mg/kg; to `Cc1nccn1CCOc1c(Cl)cccc1Cl` [Example 14, 1-(2',6'-Dichlorophenoxyethyl)-2-methylimidazole maleate], 9 mg/kg.
For the molecule `Cc1cc(OCCn2ccnc2C)cc(C)c1Cl` [Example 19, 1-(4'-Chloro-3',5'-dimethylphenoxyethyl)-2-methylimidazole maleate], the “5-HTP Potentiation, % Change … p.o.” value in data set [1] (at 100 mg/kg p.o.) worked out at 77% at 100.
As for `Cc1cc(Cl)ccc1OCCn1ccnc1C` [Example 18, 1-(4'-Chloro-2'-methylphenoxyethyl)-2-methylimidazole maleate], in data set [1] (setting [6]), the ED100 amounted to 10 mg/kg.
As for `Cc1nccn1CCOc1ccc(Cl)cc1Cl` [Example 8, 1-(2',4'-Dichlorophenoxyethyl)-2-methylimidazole], the ED100 in data set [1] (read-out: 5 HTP pot ED100) came out at 20 mg/kg. The minimal effective dose in data set [5] came out at 10 mg/kg.
With `COc1ccc(OCCn2ccnc2C)cc1` [Example 5], the minimal effective dose in data set [5] was determined as 10 mg/kg.
In the case of `Cc1nccn1CCOc1ccc(Br)cc1Cl` [Example 16, l-(4'-Bromo-2'-chlorophenoxyethyl)-2-methylimidazole maleate], the “5-HTP Potentiation, % Change … p.o.” value in data set [1] (at 30 mg/kg p.o.) was determined as 96% at 30.
With `Cc1nccn1CCOc1cccc(Cl)c1` [Example 6], the ED100 in data set [1] (read-out: 5 HTP pot ED100) amounted to 7 mg/kg. Moreover, the minimal effective dose in data set [5] stood at 100 mg/kg.
On to `Cc1nccn1CCOc1cc(Cl)cc(Cl)c1.O=C(O)/C=C\C(=O)O` [Example 11, 1-(3',5'Dichlorophenoxyethyl)-2-methylimidazole maleate], for which the ED100 in data set [1] (setting [6]) turned out to be 18 mg/kg.
On to `Cc1nccn1CCCOc1ccc(Cl)cc1` [Example 2, 1-(4'-Chlorophenoxypropyl)-2-methyl imidazole], for which the ED100 in data set [1] (read-out: 5 HTP pot ED100) was found to be 3 mg/kg. The minimal effective dose in data set [5] is 3 mg/kg.
Take `Cc1nccn1CCOc1cccc(C(F)(F)F)c1` [Example 21, 1-(3'-Trifluoromethylphenoxyethyl)-2-methylimidazole maleate]: the ED100 in data set [1] (setting [6]) turned out to be 26 mg/kg.
Still for that read-out and setting: to `Cc1nccn1CCOc1ccc(Br)cc1Br.O=C(O)/C=C\C(=O)O` [Example 15, 1-(2',4'-Dibromophenoxyethyl)-2-methylimidazole maleate] belongs 34 mg/kg.
Take `Cc1nccn1CCOc1ccc(F)cc1` [Example 4]: in data set [1] (read-out: 5 HTP pot ED100), the ED100 amounted to 1 mg/kg. For the same molecule, in data set [5], the minimal effective dose was determined as 100 mg/kg.
The corresponding values for `Cc1nccn1CCCCOc1ccc(Cl)cc1` [Example 3, 1-(4'-Chlorophenoxybutyl)-2-methyl imidazole] are 16 mg/kg and 100 mg/kg.
As for `Cc1nccn1CCOc1ccc(Cl)c(Cl)c1` [Example 10, 1-(3',4'-Dichlorophenoxyethyl)-2-methylimidazole], the ED100 in data set [1] (setting [6]) worked out at 12 mg/kg.
For the molecule `Cc1nccn1CCOc1ccc(Cl)cc1` [Example 1, 1-(4'-Chlorophenoxyethyl)-2-methyl imidazole], in data set [1] (read-out: 5 HTP pot ED100), the ED100 was found to be 5 mg/kg. The minimal effective dose in data set [5] was 10 mg/kg.
Take `Cc1nccn1CCCOc1ccc(F)cc1` [Example 9]: the ED100 in data set [1] (read-out: 5 HTP pot ED100) was determined as 10 mg/kg.
On to `Cc1nccn1CCOc1cc(Cl)c(Cl)c(Cl)c1` [Example 17, 1-(3',4',5'-Trichlorophenoxyethyl)-2-methylimidazole maleate], for which, in data set [1] (setting [6]), the ED100 worked out at 70 mg/kg.
Take `Cc1nccn1CCOc1ccccc1Cl` [Example 7]: the minimal effective dose in data set [5] was 100 mg/kg.
